Converted amounts (≈) assume the structure as drawn. “Also recorded” adds a separate entry of the source. Like-named read-outs stand apart in the source and are kept apart here.
Key:
[1] = In vitro blood incubation of amino acid prodrugs, mouse blood; type: in vitro ADME, Mice; settings: 2 μM prodrug
Protocol: (§1) Compounds 5, 6, 7 and 8 (2 μM) were incubated with fresh human blood (conducted in duplicate), rat and mouse blood. Reaction was started by the addition of compound 5, and was stopped at predefined time points (0, 5, 10, 15, 30, 45 and 60 minutes) by removing one aliquot from the incubation mixture (0.1 mL per aliquot) and adding it to 3-fold volume of stop reagent (ice-cold acetonitrile, 0.3 mL). Precipitated protein was removed by centrifugation. Prodrug compound 5-8 and parent compound 1 or 3 concentrations in the supernatant were analyzed by LC/MS/MS.

[2] = In vitro blood incubation of amino acid prodrugs, rat blood; type: in vitro ADME; settings: 2 μM prodrug
Protocol: as §1

[3] = In vitro blood incubation of amino acid prodrugs, fresh human blood; type: in vitro ADME; settings: 2 μM prodrug
Protocol: as §1

[4] = Rat PK of amino acid prodrug after IV/PO administration; type: in vivo
[5] = test system: S. aureus Smith; experiment: MIC, S. aureus Smith; type: cell-based, Staphylococcus aureus
Protocol: (§2) Susceptibility tests can be used to quantitatively measure the in vitro activity of an antimicrobial agent against a given bacterial isolate. Compounds are tested for in vitro antibacterial activity by a micro-dilution method. Minimal Inhibitory Concentration (MIC) is determined in 96 well microtiter plates utilizing the appropriate broth medium for the observed bacterial isolates. Antimicrobial agents are serially diluted (2-fold) in DMSO to produce a concentration range from about 64 μg/ml to about 0.03 μg/ml. The diluted compounds (2 μl/well) are then transferred into sterile, uninoculated medium (0.2 mL) by use of a 96 fixed tip-pipetting station. The inoculum for each bacterial strain is standardized to approximately 5×10^5 CFU/mL by optical comparison to a 0.5 McFarland turbidity standard. The plates are inoculated with 10 μl/well of adjusted bacterial inoculum. The 96 well plates are covered and incubated at 35±2° C. for 24 hours in ambient air environment. Following incubation, plate wells are visually examined by Optical Density measurement for the presence of growth (turbidity). The lowest concentration of an antimicrobial agent at which no visible growth occurs is defined as the MIC.
(§3) All in vitro testing follows the guidelines described in the Approved Standards M7-A7 protocol, published by the Clinical Laboratory Standards Institute (CLSI).

[6] = test system: S. aureus Smith; experiment: Systemic mouse protection model (MPT), S. aureus Smith; type: in vivo; settings: Staphylococcus aureus
[7] = test system: S. pneumoniae 7701; experiment: MIC, S. pneumoniae 7701; type: cell-based
Protocol: as §2, §3

[8] = test system: H. influenzae 1435; experiment: MIC, H. influenzae 1435; type: cell-based, Haemophilus influenzae; parameters: unit not given beside the values
Protocol: as §2, §3

[9] = test system: H. influenzae S1280; experiment: MIC, H. influenzae S1280; type: cell-based, Haemophilus influenzae; parameters: unit not given beside the values
Protocol: as §2, §3

[10] = test system: H. influenzae 3643; experiment: MIC, H. influenzae 3643; type: cell-based, Haemophilus influenzae; parameters: unit not given beside the values
Protocol: as §2, §3

[11] = test system: S. pneumoniae 7701; experiment: Mouse protection test model (MPT), S. pneumoniae 7701; type: in vivo; settings: Streptococcus pneumoniae
[12] = test system: H. influenzae 1435; experiment: Rat lung infection model (RLI), H. influenzae 1435; type: in vivo; settings: Haemophilus influenzae, read-out: ED50 (2Log Red for RLI)
[13] = test system: H. influenzae S1280; experiment: Rat lung infection model (RLI), H. influenzae S1280; type: in vivo; settings: Haemophilus influenzae, read-out: ED50 (2Log Red for RLI)
[14] = test system: H. influenzae 3643; experiment: Rat lung infection model (RLI), H. influenzae 3643; type: in vivo; settings: Haemophilus influenzae, read-out: ED50 (2Log Red for RLI)
[15] = test system: H influenzae 33929; experiment: MIC, H influenzae 33929; type: cell-based, Haemophilus influenzae; settings: Haemophilus influenzae, 33929; Table 5
Protocol: as §2, §3

[16] = test system: H influenzae 49247; experiment: MIC, H influenzae 49247; type: cell-based, Haemophilus influenzae; settings: Haemophilus influenzae, 49247; Table 5
Protocol: as §2, §3

[17] = Oral pharmacokinetics in mice; type: in vivo; settings: 15 mg/kg
[18] = Oral pharmacokinetics in rat; type: in vivo; settings: 10 mg/kg
[19] = Oral pharmacokinetics in dog; type: in vivo; settings: for Cmax / Tmax / half-life / AUC(0-t): in vivo; for Cmax / Tmax / half-life / AUC(0-t) / CLF / F / Vd: oral, Dog; for AUC(0-t): read-out: AUC0-24
[20] = Oral pharmacokinetics in rat plasma and lung tissue; type: in vivo; settings: 10 mg/kg PO; for AUC(0-t): read-out: AUC0-24; for Kp: lung/plasma, po, 10 mg/kg
[21] = test system: MRSA 33591; experiment: MIC, MRSA 33591; type: cell-based, Staphylococcus aureus; settings: Staphylococcus aureus, MRSA; Table 5
Protocol: as §2, §3

[22] = test system: MRSA 7662; experiment: MIC, MRSA 7662; type: cell-based; settings: Staphylococcus aureus
Protocol: as §2, §3

[23] = test system: S. aureus 7662; experiment: Systemic mouse protection model, S. aureus 7662; type: in vivo; settings: Staphylococcus aureus, S. aureus 7662, iv
[24] = test system: MRSA 7662; experiment: Mouse skin and soft tissue infection, MRSA 7662; type: in vivo; settings: Staphylococcus aureus
[25] = Tissue accumulation at the site of infection (plasma, skin, skin abscess); settings: for AUC(0-inf) / AUC(0-t) / Cmax / Kp / Tmax / half-life: mouse, po, 50 mg/kg
[26] = plasma, 10 mg/kg IV, prodrug itself measured
[27] = table of animal models of infection

## CCC(=O)/N=C1\[C@H](C)C[C@@]2(C)OC/C(=N/OCc3ccc(-c4nc(NC(=O)[C@@H](N)CC(C)C)cs4)cn3)CO[C@H]([C@H]1C)[C@](C)(O)[C@@H](CC)OC(=O)[C@@](C)(F)C(=O)[C@H](C)[C@H]2O[C@@H]1O[C@H](C)C[C@H](N(C)C)[C@H]1O [Compound 6]
[1]
  % remaining after 60 min, Mice: 5.6%
[2]
  % remaining after 60 min, Rat: 9.3%
[3]
  % remaining after 60 min, Human: 8.3%
[4]; 10 mg/kg IV, prodrug itself measured
  ClF: 788 mL/min/kg
[4]; 10 mg/kg PO, prodrug itself, 10 mg/kg
  Prodrug in plasma after oral administration: No prodrug was detected in the plasma; also recorded: None detected in plasma via oral route-
[4]; after oral (po) and IV administration
  Conversion to the parent amino derivative (Compound 1): rapidly converted to the parent amino derivative
[4]; [26]
  AUC(0-inf): 210 ng·h/mL
  Cmax: 310 ng/mL
  Tmax: 4.8 min
  Vd: 13.3 L/kg
  half-life: 0.2 h

## CC[C@H]1OC(=O)[C@H](C)C(=O)[C@H](C)[C@@H](O[C@@H]2O[C@H](C)C[C@H](N(C)C)[C@H]2O)[C@](C)(OC)C[C@@H](C)C(=O)[C@H](C)[C@H]2N(CCCCn3cnc(-c4cccnc4)c3)C(=O)O[C@]12C [Telithromycin, reference compound]
[5]; [27]
  MIC: 0.13
[6]; MPT
  ED50: 11 mg/kg
[7]
  MIC: 0.25
[8]
  MIC: 2
[9]
  MIC: 2
[10]
  MIC: 4
[11]
  ED50: 10 mg/kg
[12]
  ED50: 49 mg/kg
[13]
  ED50: 56 mg/kg
[14]
  ED50: 78 mg/kg

## CC[C@H]1OC(=O)[C@H](C)C(=O)[C@H](C)[C@@H](O[C@@H]2O[C@H](C)C[C@H](N(C)C)[C@H]2O)[C@@]2(C)C[C@@H](C)/C(=N\C(C)=O)[C@H](C)[C@@H](OC/C(=N\OCc3ccc(-c4ccno4)nc3)CO2)[C@]1(C)O [Compound 4]
[15]
  MIC: 4 µg/mL (≈ 4.75 µM)
[16]
  MIC: 4 µg/mL (≈ 4.75 µM)
[5]; [27]
  MIC: 0.25
[6]; MPT
  ED50: 9 mg/kg
[7]
  MIC: <=0.06
[8]
  MIC: 4
[9]
  MIC: 8
[10]
  MIC: 16
[11]
  ED50: 9 mg/kg
[12]
  ED50: 33 mg/kg
[13]
  ED50: 46 mg/kg
[14]
  ED50: 64 mg/kg
[17]
  CLF: 26.7 mL/min/kg
  F: 100%
  Vd: 6.8 L/kg
[17]; mouse, in vivo
  Cmax: 2430 ng/mL
  Tmax: 0.5 h
  half-life: 2.4 h
[17]; mouse, in vivo, read-out: AUC0-24
  AUC(0-t): 9800 ng·h/mL
[18]
  CLF: 10.7 mL/min/kg
  F: 87%
  Vd: 1.97 L/kg
[18]; plasma
  Cmax: 2540 ng/mL
  Tmax: 1.7 h
  half-life: 2.1 h
[18]; plasma, read-out: AUC0-24
  AUC(0-t): 13900 ng·h/mL
[19]; dogs
  Animal pharmacokinetics properties in dogs: low clearance, excellent oral absorption (bioavailability) and AUC
[19]; 5 mg/kg
  Cmax: 2470 ng/mL
  Tmax: 1.3 h
  half-life: 7.3 h
  AUC(0-t): 32600 ng·h/mL
  CLF: 1.67 mL/min/kg
  F: 71%
  Vd: 1.0 L/kg
[19]; 10 mg/kg
  Cmax: 5040 ng/mL
  Tmax: 6 h
  half-life: 15.8 h
  AUC(0-t): 84400 ng·h/mL
  CLF: 1.67 mL/min/kg
  F: 100%
  Vd: 1.54 L/kg
[20]; Lung
  Cmax: 19000 ± 80 ng/mL
  Tmax: 2.33 ± 1.15 h
  half-life: 2.51 ± 0.1 h
  AUC(0-t): 110000 ± 12900 ng·h/mL
[20]; Plasma
  Cmax: 2540 ± 80 ng/mL
  Tmax: 1.67 ± 1.15 h
  half-life: 2.06 ± 0.45 h
  AUC(0-t): 13900 ± 2810 ng·h/mL
[20]; read-out: AUC Lung/Plasma
  Kp: 8 ± 0.9
[20]; read-out: Cmax Lung/plasma
  Kp: 7.5 ± 1

## CCC(=O)/N=C1\[C@H](C)C[C@@]2(C)OC/C(=N/OCc3ccc(-c4nc(N)cs4)cn3)CO[C@H]([C@H]1C)[C@](C)(O)[C@@H](CC)OC(=O)[C@@](C)(F)C(=O)[C@H](C)[C@H]2O[C@@H]1O[C@H](C)C[C@H](N(C)C)[C@H]1O [Compound 1]
[21]
  MIC: 2 µg/mL (≈ 2.21 µM)
[22]; S. aureus 7662, table of systemic mouse protection model, read-out: MIC
  MIC: 1000 µg/mL (≈ 1100 µM)
[22]; Table 5, read-out: MIC MRSA 7662
  MIC: 1 µg/mL (≈ 1.1 µM)
[15]
  MIC: 4 µg/mL (≈ 4.42 µM)
[16]
  MIC: 4 µg/mL (≈ 4.42 µM)
[5]; Staphylococcus aureus, table of systemic mouse protection model, read-out: MIC
  MIC: 130 µg/mL (≈ 144 µM)
[6]; systemic mouse protection model, iv
  ED50: 4.8 mg/kg
[6]; systemic mouse protection model, po
  ED50: 13.3 mg/kg
[23]
  ED50: 3.6 mg/kg
[24]; MRSA 7662, iv
  ED50: 12 mg/kg
[24]; MRSA 7662, po
  ED50: 29 mg/kg
[25]; infected skin tissue of mice
  Accumulation at the site of infection: highly accumulated at the site of infections in infected skin tissue of mice
[25]; infected skin abscess
  AUC(0-inf): 617000 ng·h/mL
  AUC(0-t): 257000 ng·h/mL
  Cmax: 9030 ng/mL
  Kp: 25.2
  Tmax: 3 h
  half-life: 52.4 h
[25]; plasma
  AUC(0-inf): 24500 ng·h/mL
  AUC(0-t): 24400 ng·h/mL
  Cmax: 5120 ng/mL
  Tmax: 0.5 h
  half-life: 5.2 h
[25]; uninfected skin
  AUC(0-inf): 66600 ng·h/mL
  AUC(0-t): 54600 ng·h/mL
  Cmax: 3800 ng/mL
  Kp: 2.72
  Tmax: 3 h
  half-life: 17.9 h
